From patent publication US9045491B2, “Thienyl [3,2-D] pyrimidin-4-one compounds, preparation method, pharmaceutical compositions and use thereof” (SHANGHAI INSTITUTE OF MATERIA MEDICA, CHINESE ACADEMY OF …, priority 2011, dated 2015)

Legend:
Assay type in all cases: biochemical
human DPP IV = target: T1, human DPP IV (Homo sapiens, UniProt P27487); assay: DPP IV activity screening (Ala-Pro-AMC fluorescence)
T1 construct: extracellular fragment of protease DPP IV (aa29-766); made in house; host or cells: baculovirus expression system Bac-to-Bac
How it was run: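 DPP IV activity is taken as the linear rate of fluorescence change at 460 nm. Samples are dissolved in DMSO and screened at a single concentration (e.g. 20 μg/mL). Dose-response data are fit to a variable-slope sigmoidal model with bottom and top fixed at 0 and 100.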

human DPP 8 = target: T2, human DPP 8 (Homo sapiens, UniProt Q6V1X1); assay: DPP 8 activity screening (Ala-Pro-AMC fluorescence); conditions: N.I. = No Inhibition
T2 construct: made in house; host or cells: insect cells, baculovirus Bac-to-Bac
How it was run: (§1)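 Insect-cell baculovirus-expressed human enzymes hydrolyse Ala-Pro-AMC; AMC release monitored kinetically as fluorescence rate (ex 355/em 460 nm). Primary screen at a single concentration (e.g. 20 μg/mL); dose–response fitted to variable-slope sigmoid with bottom/top fixed at 0 and 100.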

[1] = target: dipeptidyl peptidase 7 (DPP 7) (Homo sapiens, UniProt Q9UHL4); assay: DPP 7 activity screening; conditions: N.I. = No Inhibition
How it was run: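 Sample dissolved in DMSO, final DMSO kept at a level not affecting activity; tested at a single concentration from preliminary screening (e.g. 20 μg/mL). Dose-response data fitted to sigmoidal variable-slope model with bottom and top fixed at 0 and 100.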

FAP = target: T3, FAP (Homo sapiens, UniProt Q12884); assay: FAP inhibition (Table 1); conditions: N.I. = No Inhibition
T3 sequence (Q12884 1-760): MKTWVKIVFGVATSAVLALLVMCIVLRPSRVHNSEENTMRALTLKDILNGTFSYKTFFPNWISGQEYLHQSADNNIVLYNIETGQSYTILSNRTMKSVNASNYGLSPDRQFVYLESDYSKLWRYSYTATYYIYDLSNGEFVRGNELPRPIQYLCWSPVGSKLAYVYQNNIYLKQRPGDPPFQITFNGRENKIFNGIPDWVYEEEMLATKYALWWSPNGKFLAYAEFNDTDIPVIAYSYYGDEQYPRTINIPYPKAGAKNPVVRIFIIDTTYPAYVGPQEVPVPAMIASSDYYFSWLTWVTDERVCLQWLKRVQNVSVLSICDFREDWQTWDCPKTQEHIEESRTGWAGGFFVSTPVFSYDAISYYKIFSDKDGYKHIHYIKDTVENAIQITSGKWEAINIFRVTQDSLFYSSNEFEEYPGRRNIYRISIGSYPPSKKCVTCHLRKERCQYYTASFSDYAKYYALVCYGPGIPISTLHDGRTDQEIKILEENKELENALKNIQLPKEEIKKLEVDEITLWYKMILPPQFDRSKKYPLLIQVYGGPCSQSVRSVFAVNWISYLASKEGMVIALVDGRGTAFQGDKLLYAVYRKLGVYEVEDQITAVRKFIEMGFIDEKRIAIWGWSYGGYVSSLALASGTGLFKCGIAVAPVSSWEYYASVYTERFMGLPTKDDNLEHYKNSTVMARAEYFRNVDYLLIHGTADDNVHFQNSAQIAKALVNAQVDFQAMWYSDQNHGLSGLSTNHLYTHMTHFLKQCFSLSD

Human DPP 9 = target: T4, Human DPP 9 (Homo sapiens, UniProt Q86TI2); assay: DPP 9 activity screening (Ala-Pro-AMC fluorescence); conditions: N.I. = No Inhibition
T4 construct: made in house; host or cells: insect cells, baculovirus Bac-to-Bac
How it was run: as §1

T2 sequence (Q6V1X1 whole entry): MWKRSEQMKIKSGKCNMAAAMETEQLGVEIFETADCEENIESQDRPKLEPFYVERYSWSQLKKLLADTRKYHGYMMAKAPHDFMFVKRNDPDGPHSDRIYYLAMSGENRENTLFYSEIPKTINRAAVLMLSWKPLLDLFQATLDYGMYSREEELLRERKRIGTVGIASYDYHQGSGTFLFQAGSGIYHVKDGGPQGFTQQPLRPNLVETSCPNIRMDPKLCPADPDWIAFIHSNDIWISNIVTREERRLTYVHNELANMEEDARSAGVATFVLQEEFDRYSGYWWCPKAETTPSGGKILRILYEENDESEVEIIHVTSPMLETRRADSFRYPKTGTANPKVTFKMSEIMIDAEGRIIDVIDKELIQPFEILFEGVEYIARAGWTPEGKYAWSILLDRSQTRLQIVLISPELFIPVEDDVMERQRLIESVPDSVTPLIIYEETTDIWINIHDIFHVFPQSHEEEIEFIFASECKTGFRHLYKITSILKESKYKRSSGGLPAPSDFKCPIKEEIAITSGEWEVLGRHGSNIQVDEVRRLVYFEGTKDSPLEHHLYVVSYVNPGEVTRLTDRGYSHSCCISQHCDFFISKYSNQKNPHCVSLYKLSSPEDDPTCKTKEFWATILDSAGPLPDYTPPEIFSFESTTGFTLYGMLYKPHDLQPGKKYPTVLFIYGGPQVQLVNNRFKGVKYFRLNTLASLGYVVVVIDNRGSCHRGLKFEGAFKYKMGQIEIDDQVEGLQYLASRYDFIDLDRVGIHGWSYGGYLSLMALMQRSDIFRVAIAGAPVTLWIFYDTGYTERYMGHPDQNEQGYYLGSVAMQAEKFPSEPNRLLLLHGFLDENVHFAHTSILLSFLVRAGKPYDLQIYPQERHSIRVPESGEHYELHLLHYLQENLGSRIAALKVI
T4 sequence (Q86TI2 whole entry): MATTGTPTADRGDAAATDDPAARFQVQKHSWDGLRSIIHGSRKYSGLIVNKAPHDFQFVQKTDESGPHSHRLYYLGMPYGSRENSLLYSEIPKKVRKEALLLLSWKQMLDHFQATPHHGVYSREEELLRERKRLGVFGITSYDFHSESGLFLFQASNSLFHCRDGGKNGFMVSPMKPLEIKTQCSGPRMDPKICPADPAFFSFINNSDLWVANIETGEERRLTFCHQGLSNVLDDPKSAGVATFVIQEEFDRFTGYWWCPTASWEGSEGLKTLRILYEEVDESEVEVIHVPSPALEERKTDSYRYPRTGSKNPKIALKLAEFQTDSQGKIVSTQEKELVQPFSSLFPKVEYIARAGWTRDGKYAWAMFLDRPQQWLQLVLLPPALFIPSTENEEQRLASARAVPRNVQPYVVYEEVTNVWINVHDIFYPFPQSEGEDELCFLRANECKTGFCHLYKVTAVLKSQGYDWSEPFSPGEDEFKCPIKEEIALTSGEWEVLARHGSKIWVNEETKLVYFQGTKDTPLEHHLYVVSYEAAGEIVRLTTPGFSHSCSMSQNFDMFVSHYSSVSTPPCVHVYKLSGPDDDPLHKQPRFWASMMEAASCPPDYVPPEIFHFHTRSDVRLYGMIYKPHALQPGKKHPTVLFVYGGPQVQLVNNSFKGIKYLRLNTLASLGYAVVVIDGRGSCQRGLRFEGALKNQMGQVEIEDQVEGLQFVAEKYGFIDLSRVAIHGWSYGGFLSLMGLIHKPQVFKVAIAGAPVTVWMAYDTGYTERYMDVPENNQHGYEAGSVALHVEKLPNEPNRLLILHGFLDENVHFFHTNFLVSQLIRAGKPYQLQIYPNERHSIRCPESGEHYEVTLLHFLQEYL
T1 sequence (P27487 29-766): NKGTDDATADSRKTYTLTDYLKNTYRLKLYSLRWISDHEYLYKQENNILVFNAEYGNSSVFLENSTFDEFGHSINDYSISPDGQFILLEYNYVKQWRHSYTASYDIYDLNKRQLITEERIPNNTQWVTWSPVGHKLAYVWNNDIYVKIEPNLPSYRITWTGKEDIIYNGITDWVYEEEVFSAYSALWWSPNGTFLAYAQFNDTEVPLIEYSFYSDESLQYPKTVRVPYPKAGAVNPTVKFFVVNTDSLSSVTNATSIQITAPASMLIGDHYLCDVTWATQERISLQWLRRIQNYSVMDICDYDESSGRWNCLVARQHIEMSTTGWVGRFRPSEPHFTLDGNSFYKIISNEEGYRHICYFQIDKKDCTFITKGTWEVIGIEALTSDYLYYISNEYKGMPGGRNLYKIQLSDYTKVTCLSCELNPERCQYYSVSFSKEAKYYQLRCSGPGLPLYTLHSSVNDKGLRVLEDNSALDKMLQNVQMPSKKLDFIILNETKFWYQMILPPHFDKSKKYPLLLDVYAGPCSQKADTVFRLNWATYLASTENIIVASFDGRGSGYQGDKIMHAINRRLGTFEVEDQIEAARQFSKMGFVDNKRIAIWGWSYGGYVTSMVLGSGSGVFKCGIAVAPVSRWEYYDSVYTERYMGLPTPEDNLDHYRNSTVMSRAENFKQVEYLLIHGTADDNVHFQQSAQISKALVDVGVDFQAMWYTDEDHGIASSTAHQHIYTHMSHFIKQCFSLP

IC50 (human DPP IV) | IC50 (human DPP 8) | IC50 [1] | IC50 (FAP) | IC50 (Human DPP 9) | DPP 7 IC50 [1] | DPP 9 IC50 (Human DPP 9) | DPP 8 IC50 (human DPP 8) | FAP IC50 (FAP) | Compound
0.0151 µM | 47 µM | 357 µM | 40.9 µM | 226 µM | – | – | – | – | CC(C)CNC(=O)c1csc2c(=O)n(Cc3ccccc3C#N)c(N3CCC[C@@H](N)C3)nc12 [Compound 79, (R)-2-(3-aminopiperidin-1-yl)-3-(2-cyanobenzyl)-N-isobutyl-4-oxo-3,4-dihydrothieno[3,2-d]pyrimidine-7-carboxamide]
0.026 µM | 25.7 µM | – | 28.7 µM | 115 µM | N.I. | – | – | – | N#Cc1ccccc1Cn1c(N2CCC[C@@H](N)C2)nc2c(C(=O)NC3CCCCC3)csc2c1=O [Compound 80, (R)-2-(3-aminopiperidin-1-yl)-3-(2-cyanobenzyl)-N-cyclohexyl-4-oxo-3,4-dihydrothieno[3,2-d]pyrimidine-7-carboxamide]
0.0202 µM | 59.4 µM | – | 44 µM | 348 µM | N.I. | – | – | – | N#Cc1ccccc1Cn1c(N2CCC[C@@H](N)C2)nc2c(C(=O)NC3CCOCC3)csc2c1=O [Compound 81, (R)-2-(3-aminopiperidin-1-yl)-3-(2-cyanobenzyl)-4-oxo-N-(tetrahydro-2H-pyran-4-yl)-3,4-dihydrothieno[3,2-d]-pyrimidine-7-carboxamide]
0.0659 µM | 18.1 µM | – | 16.5 µM | – | N.I. | N.I. | – | – | N#Cc1ccccc1Cn1c(N2CCC[C@@H](N)C2)nc2c(C(=O)NCC3COC3)csc2c1=O [Compound 82, (R)-2-(3-aminopiperidin-1-yl)-3-(2-cyanobenzyl)-N-(oxetan-3-ylmethyl)-4-oxo-3,4-dihydrothieno[3,2-d]pyrimidine-7-carboxamide]
0.0161 µM | 317 µM | 38.2 µM | 160 µM | – | – | N.I. | – | – | N#Cc1ccccc1Cn1c(N2CCC[C@@H](N)C2)nc2c(C#N)csc2c1=O [Compound 83, (R)-2-(3-aminopiperidin-1-yl)-3-(2-cyanobenzyl)-4-oxo-3,4-dihydrothieno-[3,2-d]pyrimidine-7-carbonitrile]
0.0242 µM | 62 µM | – | 91.3 µM | – | N.I. | N.I. | – | – | N#Cc1ccccc1Cn1c(N2CCC[C@@H](N)C2)nc2c(N)csc2c1=O [Compound 84, (R)-2-((7-amino-2-(3-aminopiperidin-1-yl)-4-oxothieno[3,2-d]pyrimidin-3(4H)-yl)methyl)benzonitriIe]
0.0371 µM | 339 µM | – | 255 µM | – | N.I. | N.I. | – | – | CS(=O)(=O)Nc1csc2c(=O)n(Cc3ccccc3C#N)c(N3CCC[C@@H](N)C3)nc12 [Compound 85, (R)-N-(2-(3-aminopiperidin-1-yl)-3-(2-cyanobenzyl)-4-oxo-3,4-dihydrothieno-[3,2-d]pyrimidin-7-yl) methanesulfonamide]
0.0208 µM | 318 µM | – | 121 µM | – | N.I. | N.I. | – | – | CC(=O)Nc1csc2c(=O)n(Cc3ccccc3C#N)c(N3CCC[C@@H](N)C3)nc12 [Compound 86, (R)-N-(2-(3-aminopiperidin-1-yl)-3-(2-cyanobenzyl)-4-oxo-3,4-dihydrothieno-[3,2-d]pyrimidin-7-yl)acetamide]

Second part, the compound before the results:

Compound | IC50 (human DPP IV) | IC50 (human DPP 8) | IC50 [1] | IC50 (FAP) | IC50 (Human DPP 9) | DPP 7 IC50 [1] | DPP 9 IC50 (Human DPP 9) | DPP 8 IC50 (human DPP 8) | FAP IC50 (FAP)
N#Cc1ccccc1Cn1c(N2CCC[C@@H](N)C2)nc2cc(COCc3ccccc3)sc2c1=O [Compound 94, (R)-2-((2-(3-aminopiperidin-1-yl)-6-((benzyloxy)methyl)-4-oxothieno-[3,2-d]pyrimidin-3(4H)-yl)methyl)-benzonitrile] | 0.0104 µM | 34.2 µM | – | 96.8 µM | 55 µM | N.I. | – | – | –
N#Cc1ccccc1Cn1c(N2CCC[C@@H](N)C2)nc2cc(CN3CCOCC3)sc2c1=O [Compound 95, (R)-2-((2-(3-aminopiperidin-1-yl)-6-(morpholinomethyl)-4-oxothieno-[3,2-d]pyrimidin-3(4H)-yl)methyl)benzonitrile] | 0.0592 µM | – | – | – | – | N.I. | N.I. | N.I. | N.I.
CC(=O)OCc1cc2nc(N3CCC[C@@H](N)C3)n(Cc3ccccc3C#N)c(=O)c2s1 [Compound 96, (R)-(2-(3-aminopiperidin-1-yl)-3-(2-cyanobenzyl)-4-oxo-3,4-dihydrothieno-[3,2-d]pyrimidin-6-yl)methyl acetate] | 0.0116 µM | – | – | – | – | N.I. | N.I. | N.I. | N.I.
N#Cc1ccccc1Cn1c(N2CCC[C@@H](N)C2)nc2cc(C(N)=O)sc2c1=O [Compound 97, (R)-2-(3-aminopiperidin-1-yl)-3-(2-cyanobenzyl)-4-oxo-3,4-dihydrothieno-[3,2-d]pyrimidine-6-carboxamide] | 0.0204 µM | – | – | – | – | N.I. | N.I. | N.I. | N.I.
COC(=O)CNC(=O)c1cc2nc(N3CCC[C@@H](N)C3)n(Cc3ccccc3C#N)c(=O)c2s1 [Compound 99, (R)-methyl 2-(2-(3-aminopiperidin-1-yl)-3-(2-cyanobenzyl)-4-oxo-3,4-dihydrothieno[3,2-d]pyrimidine-6-carboxamido)acetate] | 0.0247 µM | 66 µM | – | 178 µM | 179 µM | N.I. | – | – | –
COC(=O)[C@@H](NC(=O)c1cc2nc(N3CCC[C@@H](N)C3)n(Cc3ccccc3C#N)c(=O)c2s1)C(C)C [Compound 100, (S)-methyl 2-(2-((R)-3-aminopiperidin-1-yl)-3-(2-cyanobenzyl)-4-oxo-3,4-dihydrothieno[3,2-d]pyrimidine-6-carboxamido)-3-methylbutanoate] | 0.0283 µM | 43.1 µM | – | 119 µM | 117 µM | N.I. | – | – | –
COC(=O)[C@H](Cc1ccc(O)cc1)NC(=O)c1cc2nc(N3CCC[C@@H](N)C3)n(Cc3ccccc3C#N)c(=O)c2s1 [Compound 101, (S)-methyl 2-(2-((R)-3-aminopiperidin-1-yl)-3-(2-cyanobenzyl)-4-oxo-3,4-dihydrothieno[3,2-d]pyrimidine-6-carboxamido)-3-(4-hydroxyphenyl)-propanoate] | 0.0306 µM | 13.5 µM | – | 42 µM | 14.8 µM | N.I. | – | – | –
COC(=O)[C@H](Cc1ccccc1)NC(=O)c1cc2nc(N3CCC[C@@H](N)C3)n(Cc3ccccc3C#N)c(=O)c2s1 [Compound 102, (S)-methyl 2-(2-((R)-3-aminopiperidin-1-yl)-3-(2-cyanobenzyl)-4-oxo-3,4-dihydrothieno[3,2-d]pyrimidine-6-carboxamido)-3-phenylpropanoate] | 0.0384 µM | 27.8 µM | – | 68.5 µM | 32.6 µM | N.I. | – | – | –
N#Cc1ccccc1Cn1c(N2CCC[C@@H](N)C2)nc2cc(C(=O)NCc3ccc(C(F)(F)F)cc3)sc2c1=O [Compound 103, (R)-2-(3-aminopiperidin-1-yl)-3-(2-cyanobenzyl)-4-oxo-N-(4-(trifluoromethyl)benzyl)-3,4-dihydrothieno[3,2-d]pyrimidine-6-carboxamide] | 0.0538 µM | – | – | 145 µM | 86.8 µM | N.I. | – | N.I. | –
